The target in one experiment is T1, PotF/D–S247D (Escherichia coli, UniProt P31133, A182D/D39E/F276W/L348Q/S38T/S87Y).
T1 construct: without the N-terminal signal peptide; made in house; host or cells: E. coli BL21 (DE3)
T1 sequence (P31133 27-370 S38T/D39E/S87Y/A182D/F276W/L348Q): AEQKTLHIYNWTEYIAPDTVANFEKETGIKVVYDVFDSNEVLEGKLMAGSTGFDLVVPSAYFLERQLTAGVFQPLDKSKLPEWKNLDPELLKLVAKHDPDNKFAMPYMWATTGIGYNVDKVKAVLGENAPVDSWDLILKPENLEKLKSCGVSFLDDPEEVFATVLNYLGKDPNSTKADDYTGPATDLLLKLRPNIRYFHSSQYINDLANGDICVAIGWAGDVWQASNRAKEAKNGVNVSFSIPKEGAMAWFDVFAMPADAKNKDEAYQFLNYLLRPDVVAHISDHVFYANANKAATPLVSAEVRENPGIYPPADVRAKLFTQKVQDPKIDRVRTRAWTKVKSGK
The experiment can be described thus: ITC, PotF/D–S247D. The experiment is classed as binding. Conditions: 293 K. As for the experimental part: (§1) Ligands were always freshly prepared in the exact same buffer as was used for the size exclusion run. Samples were degassed, and temperature was equilibrated using a degassing station (TA Instruments). About 400 μl protein sample of different concentrations (Table S5) depending on affinity was transferred into the sample cell of a nanoITC (TA Instruments), and 50 μl of about tenfold concentrated ligand solution was loaded into the injection needle. Multiple injection measurements were carried out at 293 K, 300 rpm stirring rate, and 250 s spacings between each 2 μl injection. The heat quantity past injection was determined by integration of the measured peaks. Every protein–ligand combination was measured as biological triplicate. Subtraction of heat of dilution measurements, peak integration, and one site binding fits were done with NanoAnalyze (TA Instruments). Reported errors are the errors between fits of the measured triplicates.
In general terms: Isothermal titration calorimetry measures the heat released or taken up as one component is titrated into another.

The next experiment deals with T2, PotF/D–E39D–Y87S (Escherichia coli, UniProt P31133, A182D/D247S/F276W/L348Q/S38T).
T2 construct: without the N-terminal signal peptide; made in house; host or cells: E. coli BL21 (DE3)
T2 sequence (P31133 27-370 S38T/A182D/D247S/F276W/L348Q): T1 sequence (P31133 27-370 S38T/D39E/S87Y/A182D/F276W/L348Q) with E13D, Y61S, D221S
The experiment can be described thus: ITC, PotF/D–E39D–Y87S. The format is binding. Conditions: 293 K. As to the method: as §1

The mark [1] stands for this setting: ITC, 50 mM Tris pH 8, 300 mM NaCl, biological triplicates.

Changes are numbered by the printed parent chain. Values joined by “and” are separate entries in the source; they are usually repeats but may differ in a detail not shown here. Identical values can stand only once.

With `NCCCCNCCCN` [SPD, spermidine], the values for the n at PotF/D–S247D (ITC binding stoichiometry) and on PotF/D–E39D–Y87S (ITC binding stoichiometry) were 0.94 ± 0.01 and 0.98 ± 0.01, respectively. Also, the values for the ΔG on PotF/D–S247D (ITC) and on PotF/D–E39D–Y87S (ITC) were -6.77 ± 0.18 kcal/mol and -6.74 ± 0.06 kcal/mol, respectively. For the same molecule, the ΔH was -6.76 ± 0.08 kcal/mol on PotF/D–S247D (ITC) and -6.56 ± 0.13 kcal/mol at PotF/D–E39D–Y87S (ITC). Besides, the “−TΔS” value is -0.01 ± 0.25 kcal/mol at PotF/D–S247D (ITC) and -0.18 ± 0.19 kcal/mol at PotF/D–E39D–Y87S (ITC). Further, the Kd was ~9.4 µM and 9.4 µM and 9.43 µM at PotF/D–S247D (setting [1]); 9.4 µM and 9.44 µM at PotF/D–E39D–Y87S (setting [1]).

The term Kd denotes the free concentration of one partner at which half of the binding sites on the other are occupied at equilibrium, for simple one-to-one binding.
